Activity calls are given as the source filed them.
How the values were obtained:
[1] = inhibitors of HIV Env-driven cell fusion, dose response, cherry-pick (AID 652057); format: functional, cell-based
[2] = ZM109 Env clade C HIV-1 fusion inhibitors, dose response, HeLa effector, CEM target cells, luciferase, cherry-pick (AID 652058); format: functional, cell-based
Paired box protein Pax-8 = Paired box protein Pax-8 (Homo sapiens, UniProt Q06710); experiment: inhibitors of PAX8-driven TPO luciferase reporter, dose response, RMG-I cells, cherry-pick (AID 687027); format: functional, cell-based;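 further: luciferase reporter driven by Pax8 target thyroperoxidase promoter measured by SteadyGlo luminescence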
Sequence of Paired box protein Pax-8 (Q06710 whole entry, the tested form may be a part): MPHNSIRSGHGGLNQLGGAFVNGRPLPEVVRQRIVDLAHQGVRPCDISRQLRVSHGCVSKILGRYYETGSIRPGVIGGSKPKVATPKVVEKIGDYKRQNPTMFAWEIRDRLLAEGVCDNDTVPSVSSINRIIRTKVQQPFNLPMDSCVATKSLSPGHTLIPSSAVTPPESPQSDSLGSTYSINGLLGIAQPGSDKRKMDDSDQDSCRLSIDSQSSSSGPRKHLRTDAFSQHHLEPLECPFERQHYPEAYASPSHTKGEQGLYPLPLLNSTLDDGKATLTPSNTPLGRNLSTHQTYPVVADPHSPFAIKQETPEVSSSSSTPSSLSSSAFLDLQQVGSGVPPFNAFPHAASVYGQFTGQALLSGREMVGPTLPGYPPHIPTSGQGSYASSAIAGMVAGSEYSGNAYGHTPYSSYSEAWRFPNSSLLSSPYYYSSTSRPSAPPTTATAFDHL

[3] = off-target signal loss in HeLa-CEM21 co-culture – HeLa F-luc CTL cells, cherry-picked, counter-screen for HIV-1 Env fusion inhibitor project, dose response (AID 652040); format: functional, cell-based;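 further: potency for signal decrease marking cytotoxic or nonspecific inhibition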
[4] = inhibitors of clade B AD8 Env fusion, dose response, cell-based, cherry-pick (AID 652062); format: functional;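 further: luciferase signal from cell-cell fusion driven by HIV-1 clade B AD8 Env; potency is for inhibitors of fusion seen as a drop in luminescence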
[5] = A2780 ovarian cancer cell cytotoxicity, dose response, cytotoxicity control, plate reader, dry powder samples (AID 743046); format: functional, cell-based
[6] = NIH:OVCAR-3 ovarian cancer cell cytotoxicity, dose response, PAX8 inhibitor project, plate reader, dry powder samples (AID 743044); format: functional, cell-based
[7] = cytotoxicity in OVCAR8 ovarian cancer cells, dose response, PAX8 project, cell-based, plate reader, dry powder samples (AID 743197); format: functional; conditions: OVCAR-8
[8] = inhibitors of PGC1a acetylation in cells, dose response, cell-based, cherry-picked samples (AID 720514); format: functional;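 further: potency may reflect raised or lowered acetylation signal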
[9] = non-specific cell cytotoxicity, dose response, cytotoxicity control for PAX8 inhibitor project, plate reader, dry powder samples (AID 743021); format: functional, cell-based
fMet-Leu-Phe receptor = target: T1, fMet-Leu-Phe receptor (Homo sapiens, UniProt P21462); experiment: FPR ligands, dose response (AID 519); format: functional
T1 sequence (P21462 whole entry): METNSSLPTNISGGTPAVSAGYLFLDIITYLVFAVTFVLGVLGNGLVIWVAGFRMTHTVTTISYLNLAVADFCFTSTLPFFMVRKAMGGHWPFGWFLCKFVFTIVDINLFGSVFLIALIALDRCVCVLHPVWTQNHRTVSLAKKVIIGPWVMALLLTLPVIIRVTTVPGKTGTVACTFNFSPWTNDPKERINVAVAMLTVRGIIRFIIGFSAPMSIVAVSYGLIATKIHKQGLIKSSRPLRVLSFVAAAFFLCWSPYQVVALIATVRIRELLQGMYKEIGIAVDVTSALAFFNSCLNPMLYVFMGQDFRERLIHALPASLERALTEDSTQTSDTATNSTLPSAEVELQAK

[10] = target: T2, Low molecular weight phosphotyrosine protein phosphatase (Homo sapiens, UniProt P24666); format: functional; conditions: read-out: IC50_Mean;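 further: Dose-response confirmation assay measuring inhibition of LMPTP enzyme activity by fluorescence intensity read-out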
T2 sequence (P24666 whole entry): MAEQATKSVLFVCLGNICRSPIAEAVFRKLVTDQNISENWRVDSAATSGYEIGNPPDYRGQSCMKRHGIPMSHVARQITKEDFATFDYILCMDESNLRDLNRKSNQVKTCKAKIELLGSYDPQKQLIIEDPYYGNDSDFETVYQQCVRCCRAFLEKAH

[11] = Artemis endonuclease inhibitor potency, dose response, biochemical, fluorescence intensity (AID 720701); format: functional;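 further: Artemis endonuclease enzyme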
[12] = cytotoxicity in HPDE-C7 cells, cell-based, fluorescence, HTS (AID 430); format: functional; conditions: Homo sapiens
[13] = microbe, parasite or virus in culture; format: functional; conditions: Mycobacterium tuberculosis
[14] = cytotoxicity in KRAS-transformed pancreatic duct cells, primary screen, cell-based, fluorescence, HTS (AID 431); format: functional; conditions: Homo sapiens;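 further: cell line used: HPDE-C7K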
[15] = target: T3, Calpain-2 catalytic subunit (Sus scrofa, UniProt P43367); experiment: pig calpain II inhibitor potency, dose response, biochemical, fluorogenic peptide substrate (AID 1420); format: functional
T3 sequence (P43367 whole entry): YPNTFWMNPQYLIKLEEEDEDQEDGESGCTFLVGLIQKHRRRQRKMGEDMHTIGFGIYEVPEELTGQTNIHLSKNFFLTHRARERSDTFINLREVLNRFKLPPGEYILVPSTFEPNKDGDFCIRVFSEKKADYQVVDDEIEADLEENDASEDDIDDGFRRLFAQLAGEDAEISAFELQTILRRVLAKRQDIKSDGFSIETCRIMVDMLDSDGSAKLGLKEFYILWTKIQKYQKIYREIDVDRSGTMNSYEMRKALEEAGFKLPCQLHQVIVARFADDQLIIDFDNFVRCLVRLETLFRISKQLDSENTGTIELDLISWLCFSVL

Cysteine protease ATG4B = target: T4, Cysteine protease ATG4B (Homo sapiens, UniProt Q9Y4P1); format: functional;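 further: Fluorescence-based dose-response confirmation assay measuring inhibition of ATG4B activity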
T4 sequence (Q9Y4P1 whole entry): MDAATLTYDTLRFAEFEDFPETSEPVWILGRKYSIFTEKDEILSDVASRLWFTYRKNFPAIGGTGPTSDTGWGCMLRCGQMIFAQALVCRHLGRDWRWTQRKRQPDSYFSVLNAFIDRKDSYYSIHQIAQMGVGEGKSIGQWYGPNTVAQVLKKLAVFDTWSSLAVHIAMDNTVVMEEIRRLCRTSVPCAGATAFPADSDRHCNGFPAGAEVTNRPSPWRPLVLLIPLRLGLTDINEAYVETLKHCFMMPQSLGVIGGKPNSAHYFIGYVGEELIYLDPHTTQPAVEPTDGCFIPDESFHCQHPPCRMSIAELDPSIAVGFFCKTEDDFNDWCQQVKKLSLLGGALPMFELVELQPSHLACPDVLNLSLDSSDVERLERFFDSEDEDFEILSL

[16] = target: Heat shock protein HSP 90-alpha (Homo sapiens, UniProt P07900); format: functional, organism-based
Phospholipase A2 = Phospholipase A2 (Homo sapiens, UniProt P04054); format: functional;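 further: confirmatory dose-response counterscreen on phospholipase A2, testing hits that came from an ultra-high-throughput screen for ATG4B inhibitors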
Sequence of Phospholipase A2 (P04054 whole entry): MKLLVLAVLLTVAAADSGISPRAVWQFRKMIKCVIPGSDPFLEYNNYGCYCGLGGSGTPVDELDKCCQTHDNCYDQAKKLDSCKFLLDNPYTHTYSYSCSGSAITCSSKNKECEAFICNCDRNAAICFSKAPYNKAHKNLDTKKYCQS

[17] = LGR2 antagonists, dose response, cell-based, HEK293, CRE-luciferase reporter, cherry pick, set 2 (AID 743343); format: functional;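 further: transfected cells were stimulated with diluted bursicon conditioned medium after compound addition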
[18] = MC4R antagonists, dose response, counter-screen for LGR2 antagonist project, cell-based, plate reader, cherry pick (AID 743444); format: functional;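 further: transfected HEK 293 cells stimulated with alpha-MSH peptide; potency of inhibitors of the alpha-MSH evoked signal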
[19] = HEK293 cell cytotoxicity, dose response, cytotoxicity control, plate reader, cherry-picked samples (AID 743446); format: functional, cell-based
[20] = target: Peroxisome proliferator-activated receptor gamma/Nuclear receptor coactivator 2 (Homo sapiens, UniProt P37231); format: functional;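 further: agonist potency for raising coactivator recruitment to the receptor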
Sequence of Peroxisome proliferator-activated receptor gamma/Nuclear receptor coactivator 2 (P37231 whole entry): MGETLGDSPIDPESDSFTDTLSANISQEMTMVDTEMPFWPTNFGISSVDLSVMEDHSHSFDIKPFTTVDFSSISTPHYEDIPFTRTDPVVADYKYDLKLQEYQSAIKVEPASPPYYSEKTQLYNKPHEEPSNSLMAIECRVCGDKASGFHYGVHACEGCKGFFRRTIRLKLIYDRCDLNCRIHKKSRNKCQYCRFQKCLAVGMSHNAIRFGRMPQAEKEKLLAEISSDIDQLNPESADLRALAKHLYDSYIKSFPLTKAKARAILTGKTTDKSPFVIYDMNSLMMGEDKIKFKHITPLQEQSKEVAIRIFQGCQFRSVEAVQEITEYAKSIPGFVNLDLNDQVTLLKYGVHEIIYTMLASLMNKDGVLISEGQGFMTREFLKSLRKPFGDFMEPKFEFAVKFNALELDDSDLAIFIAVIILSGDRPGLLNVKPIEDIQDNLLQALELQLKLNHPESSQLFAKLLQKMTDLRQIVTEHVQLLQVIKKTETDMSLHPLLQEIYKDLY
Sequence of Peroxisome proliferator-activated receptor gamma/Nuclear receptor coactivator 2 (Q15596 whole entry, further chain): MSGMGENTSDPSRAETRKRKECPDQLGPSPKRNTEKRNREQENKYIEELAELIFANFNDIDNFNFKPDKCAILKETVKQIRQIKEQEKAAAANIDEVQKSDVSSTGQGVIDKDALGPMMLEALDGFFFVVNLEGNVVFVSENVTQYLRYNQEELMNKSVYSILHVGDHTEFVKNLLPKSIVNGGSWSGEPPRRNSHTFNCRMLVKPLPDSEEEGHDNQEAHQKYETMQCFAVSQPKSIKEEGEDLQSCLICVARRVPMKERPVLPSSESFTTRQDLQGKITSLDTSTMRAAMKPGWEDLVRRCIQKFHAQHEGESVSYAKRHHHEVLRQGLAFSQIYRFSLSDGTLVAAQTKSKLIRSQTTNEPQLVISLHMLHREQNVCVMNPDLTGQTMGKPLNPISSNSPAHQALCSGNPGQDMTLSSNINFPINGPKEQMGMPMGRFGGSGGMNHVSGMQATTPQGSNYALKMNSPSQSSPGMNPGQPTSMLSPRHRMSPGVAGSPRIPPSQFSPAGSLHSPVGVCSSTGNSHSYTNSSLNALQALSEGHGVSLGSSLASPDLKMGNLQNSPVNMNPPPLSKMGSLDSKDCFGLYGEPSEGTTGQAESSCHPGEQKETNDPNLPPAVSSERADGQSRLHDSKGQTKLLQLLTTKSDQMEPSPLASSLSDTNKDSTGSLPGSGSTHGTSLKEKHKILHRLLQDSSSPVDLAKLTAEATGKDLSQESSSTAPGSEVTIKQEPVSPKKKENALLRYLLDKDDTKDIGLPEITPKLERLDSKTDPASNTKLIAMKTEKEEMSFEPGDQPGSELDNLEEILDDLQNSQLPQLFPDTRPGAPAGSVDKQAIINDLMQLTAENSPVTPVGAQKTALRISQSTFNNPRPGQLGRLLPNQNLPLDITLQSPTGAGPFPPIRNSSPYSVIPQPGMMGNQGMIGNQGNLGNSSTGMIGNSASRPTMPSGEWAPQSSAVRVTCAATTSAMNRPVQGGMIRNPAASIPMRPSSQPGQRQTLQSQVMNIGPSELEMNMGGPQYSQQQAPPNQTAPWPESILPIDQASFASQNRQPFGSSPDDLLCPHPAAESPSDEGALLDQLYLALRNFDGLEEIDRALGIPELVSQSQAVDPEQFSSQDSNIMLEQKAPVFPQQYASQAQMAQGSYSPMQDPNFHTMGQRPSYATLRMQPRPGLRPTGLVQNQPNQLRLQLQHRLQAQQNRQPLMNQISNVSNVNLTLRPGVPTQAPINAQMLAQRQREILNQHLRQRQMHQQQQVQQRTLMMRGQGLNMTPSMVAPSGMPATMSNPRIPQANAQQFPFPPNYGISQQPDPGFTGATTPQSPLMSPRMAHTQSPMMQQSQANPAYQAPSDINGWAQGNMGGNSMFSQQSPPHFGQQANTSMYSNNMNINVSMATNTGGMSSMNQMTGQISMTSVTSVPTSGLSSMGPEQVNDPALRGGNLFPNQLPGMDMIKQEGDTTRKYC

[21] = target: Peroxisome proliferator-activated receptor gamma/Nuclear receptor coactivator 1 (Homo sapiens, UniProt P37231); format: functional;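 further: agonist potency as compounds enhance coactivator SRC-1 recruitment to PPARgamma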
[22] = target: Peroxisome proliferator-activated receptor gamma/Nuclear receptor coactivator 3 (Homo sapiens, UniProt P37231); format: functional;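 further: agonist potency for raising coactivator recruitment to the receptor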
Sequence of Peroxisome proliferator-activated receptor gamma/Nuclear receptor coactivator 3 (P37231 whole entry, the tested form may be a part): as the sequence (P37231 whole entry) above
Sequence of Peroxisome proliferator-activated receptor gamma/Nuclear receptor coactivator 3 (Q9Y6Q9 whole entry, further chain, the tested form may be a part): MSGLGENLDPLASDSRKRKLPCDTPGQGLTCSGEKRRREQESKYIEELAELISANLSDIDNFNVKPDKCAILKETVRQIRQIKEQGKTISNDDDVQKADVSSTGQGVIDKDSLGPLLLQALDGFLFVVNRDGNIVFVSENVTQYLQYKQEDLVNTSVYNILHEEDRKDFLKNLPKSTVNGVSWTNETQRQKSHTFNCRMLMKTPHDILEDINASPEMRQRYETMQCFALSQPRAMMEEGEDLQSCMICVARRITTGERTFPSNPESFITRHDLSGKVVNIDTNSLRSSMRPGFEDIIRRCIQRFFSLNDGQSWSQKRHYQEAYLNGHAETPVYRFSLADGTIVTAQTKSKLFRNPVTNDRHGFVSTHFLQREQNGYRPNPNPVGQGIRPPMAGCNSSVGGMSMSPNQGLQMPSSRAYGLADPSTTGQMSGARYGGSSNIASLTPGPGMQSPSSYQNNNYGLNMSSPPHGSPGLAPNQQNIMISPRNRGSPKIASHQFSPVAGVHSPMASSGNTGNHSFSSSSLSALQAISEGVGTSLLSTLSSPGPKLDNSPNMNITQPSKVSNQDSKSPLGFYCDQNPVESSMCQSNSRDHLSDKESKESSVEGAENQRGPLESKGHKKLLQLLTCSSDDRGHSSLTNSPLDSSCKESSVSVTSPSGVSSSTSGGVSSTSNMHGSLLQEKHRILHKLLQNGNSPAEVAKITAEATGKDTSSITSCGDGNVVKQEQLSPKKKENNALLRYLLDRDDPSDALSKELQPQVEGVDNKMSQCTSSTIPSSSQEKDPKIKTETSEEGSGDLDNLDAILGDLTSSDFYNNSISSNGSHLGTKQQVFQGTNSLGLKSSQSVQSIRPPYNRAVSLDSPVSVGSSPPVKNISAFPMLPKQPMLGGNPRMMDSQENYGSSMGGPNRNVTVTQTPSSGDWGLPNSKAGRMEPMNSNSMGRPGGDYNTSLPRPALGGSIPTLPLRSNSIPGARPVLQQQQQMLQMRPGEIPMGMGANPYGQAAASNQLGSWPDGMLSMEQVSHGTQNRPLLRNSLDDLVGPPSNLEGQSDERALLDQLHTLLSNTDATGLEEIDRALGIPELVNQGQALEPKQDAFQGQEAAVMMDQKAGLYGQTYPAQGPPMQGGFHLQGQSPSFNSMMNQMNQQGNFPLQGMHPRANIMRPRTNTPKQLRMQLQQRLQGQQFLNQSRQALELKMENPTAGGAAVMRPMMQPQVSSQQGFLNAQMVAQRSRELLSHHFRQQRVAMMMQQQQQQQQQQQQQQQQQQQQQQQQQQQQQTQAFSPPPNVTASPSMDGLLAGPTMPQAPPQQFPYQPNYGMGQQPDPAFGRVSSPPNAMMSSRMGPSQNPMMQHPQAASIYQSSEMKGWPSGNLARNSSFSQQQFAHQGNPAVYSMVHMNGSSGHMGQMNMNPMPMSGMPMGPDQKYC

[23] = target: T5, Oxysterols receptor LXR-beta (Homo sapiens, UniProt P55055); format: functional, cell-based;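 further: agonist activity at LXR measured by a cell-based luminescence readout across a dose range, run as a counterscreen for daf-12 agonists; HEK293 cells with Gal4-LXR fusion and GAL4-driven luciferase reporter; potency for activation of Gal4-LXR reporter so compounds are agonists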
T5 sequence (P55055 whole entry): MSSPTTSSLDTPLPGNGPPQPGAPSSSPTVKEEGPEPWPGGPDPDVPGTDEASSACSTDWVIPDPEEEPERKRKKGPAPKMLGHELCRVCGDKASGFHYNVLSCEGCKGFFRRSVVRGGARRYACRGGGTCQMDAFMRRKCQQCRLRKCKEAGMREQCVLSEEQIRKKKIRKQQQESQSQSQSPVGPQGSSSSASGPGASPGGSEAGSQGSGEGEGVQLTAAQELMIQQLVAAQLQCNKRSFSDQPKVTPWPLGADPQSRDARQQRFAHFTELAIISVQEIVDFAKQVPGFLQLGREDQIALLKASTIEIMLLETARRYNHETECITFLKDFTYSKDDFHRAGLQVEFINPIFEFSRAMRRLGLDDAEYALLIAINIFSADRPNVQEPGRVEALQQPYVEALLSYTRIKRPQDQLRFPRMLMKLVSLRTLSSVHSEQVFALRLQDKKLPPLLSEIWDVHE

Mu-type opioid receptor = Mu-type opioid receptor (Homo sapiens, UniProt P35372); format: functional, cell-based;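 further: U2OS cells with beta-arrestin recruitment to OPRM1 by beta-gal complementation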
Sequence of Mu-type opioid receptor (P35372 whole entry): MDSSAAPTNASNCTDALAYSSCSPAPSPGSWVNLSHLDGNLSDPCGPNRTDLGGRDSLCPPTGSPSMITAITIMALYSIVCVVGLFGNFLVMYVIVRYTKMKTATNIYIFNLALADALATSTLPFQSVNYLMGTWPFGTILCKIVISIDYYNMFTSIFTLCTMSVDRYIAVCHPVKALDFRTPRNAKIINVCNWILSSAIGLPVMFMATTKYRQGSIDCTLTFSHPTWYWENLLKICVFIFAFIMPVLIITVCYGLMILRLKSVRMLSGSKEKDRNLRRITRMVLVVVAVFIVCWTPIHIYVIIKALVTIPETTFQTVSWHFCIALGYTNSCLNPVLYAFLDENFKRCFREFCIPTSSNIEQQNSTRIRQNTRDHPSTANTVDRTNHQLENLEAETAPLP

[24] = target: 5-hydroxytryptamine receptor 2A (Mus musculus, UniProt P35363); format: functional, cell-based;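 further: CHO-K1 cells with tagged receptor and beta-arrestin; agonist potency measured as compound-induced activation of the receptor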
[25] = THP-1 cell cytotoxicity, dose response, cytotoxicity control for Vif-APOBEC3G degradation inhibitor project, THP-1 cells (AID 1117359); format: functional; conditions: Human immunodeficiency virus 1, THP-1
[26] = HEp-2 cell cytotoxicity, dose response, cytotoxicity control for RSV inhibitor project, HTS (AID 2410); format: functional; conditions: human respiratory syncytial virus
[27] = test system: Streptococcus sp. 'group A'; experiment: growth inhibition of control SK(-) GAS strain, dose response, counter-screen for streptokinase expression inhibitor project, luminescence, kanamycin, BacTiterGlo, confirmation (AID 1900); format: functional, organism-based
[28] = growth suppression of PTEN-null colon cells, dose response, cell-based, HCT116 PTEN knockout (AID 1047); format: functional;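 further: HCT116 colon tumor cells with PTEN knocked out; cells exposed to compound for 60 hours before readout; potency for loss of cell viability measured by luminescence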
[29] = growth suppression of beta-catenin-knockout colon cells, dose response, cell-based, HCT116, human colon tumor (AID 1045); format: functional;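 further: HCT116 colon tumor cells with beta catenin knocked out; cells exposed to compound for 60 hours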
Streptococcus = experiment: Group A Streptococcus viability loss, dose response, counter-screen for streptokinase expression inhibitor project, luminescence, BacTiterGlo (AID 1915); format: functional, organism-based;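 further: potency for reduction of bacterial viability or growth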
[30] = HepG2 cell cytotoxicity, dose response, cytotoxicity control, plate reader, cherry-pick, antagonist series (AID 743416); format: functional, cell-based
[31] = target: Induced myeloid leukemia cell differentiation protein Mcl-1 (Homo sapiens, UniProt Q07820); format: functional
[32] = target: Eukaryotic translation initiation factor 4E (Mus musculus, UniProt P63073); experiment: eIF4E–eIF4G protein interaction inhibitors, dose response, biochemical, TR-FRET (AID 855); format: functional;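 further: potency for disrupting eIF4E binding to eIF4GI seen as loss of FRET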
[33] = A375 melanoma cell viability loss, dose response, counter-screen for MITF inhibitor project, CellTiter-Glo luminescence, dry powder, set 4 (AID 624364); format: functional, cell-based; conditions: A-375;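 further: A375 melanoma cells are MITF independent so this is a counter screen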
[34] = A375 melanoma cell cytotoxicity, dose response, counter-screen for MITF inhibitor project, CellTiter-Glo luminescence, dry powder, set 2 (AID 624489); format: functional, cell-based; conditions: A-375;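 further: actives are compounds lowering A375 viability meaning general cytotoxicity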

COc1cc(/C=N/NS(=O)(=O)c2ccc(C)cc2)ccc1OCc1cccc(C(=O)O)c1
AC50 [1]: 2.17 µM (active)
AC50 [2]: 19.5 µM (active)
AC50 (Paired box protein Pax-8): 13 µM (active)
AC50 [3]: 5.81 µM (active)
AC50 [4]: 6.48 µM (active)

C[C@@H]1CCCCO[C@H](CN(C)C(=O)Cc2ccccc2)[C@@H](C)CN([C@@H](C)CO)C(=O)c2cc(NS(=O)(=O)c3ccc(Cl)cc3)ccc2O1
AC50 (Paired box protein Pax-8): 7.18 µM (active)
AC50 [5]: 48.6 µM (active)
AC50 [6]: 23.3 µM (active)
AC50 [7]: 39.2 µM (active)

COc1ccccc1C#Cc1ccc2c(c1)O[C@@H](CN(C)Cc1cccnc1)[C@H](C)CN([C@H](C)CO)S2(=O)=O
AC50 (Paired box protein Pax-8): 2.04 µM (active)
AC50 [8]: 5.09 µM (active)
AC50 [9]: 21.8 µM (active)
AC50 [7]: 18.3 µM (active)

CC1CCN(S(=O)(=O)c2ccc3c(c2)oc(=O)n3CC(=O)NCc2ccc3c(c2)OCO3)CC1
Ki (fMet-Leu-Phe receptor): > 66.7 µM (inactive)

Oc1cc(-c2ccccc2)nc2nc(-c3ccco3)nn12
IC50 [10]: 80 µM (inactive)
IC50 [11]: > 20 µM (inactive)

c1ccc(-c2ccc(C(c3ccccc3)n3ccnc3)cc2)cc1 (stereo not given) [BIFONAZOLE]
EC50 [12]: > 20 µM (not active)
CC50 [13]: > 40 µM (active)
EC50 [14]: 17.8 µM (active)
IC50 [15]: 14.7 µM (not active)
IC50 (Cysteine protease ATG4B): 8.5 µM (active)
AC50 [16]: 1.06 µM (active)
IC50 (Phospholipase A2): 8.89 µM (active)

Cc1ccc(C(=O)C2C(=O)C3CCC2C3)cc1 (stereo not given)
AC50 [17]: 8.6 µM (active)
AC50 [18]: 4.95 µM (active)
AC50 [19]: > 52 µM (inactive)

COc1ccc(Br)cc1C(=O)N/N=C/c1ccc([N+](=O)[O-])cc1
EC50 [20]: > 79.4 µM (not active)
EC50 [21]: > 79.4 µM (not active)
EC50 [22]: > 79.4 µM (not active)

ON=C(CCc1ccccc1)c1ccccc1
EC50 [23]: > 67.5 µM (inactive)

CCOC(=O)C1CCN(Cc2ccc(C(=O)OC)cc2)CC1
Ki (fMet-Leu-Phe receptor): > 66.7 µM (inactive)

Oc1cc2c(cc1O)[C@@H](c1ccccc1)CNCC2
EC50 (Mu-type opioid receptor): 92.7 µM (inactive)
EC50 [24]: 28.2 µM (inactive)
CC50 [25]: > 40 µM (active)

O=[N+]([O-])c1ccc(/C=N/Nc2nc(-c3ccccc3)c3cc(Br)ccc3n2)o1
CC50 [26]: > 50 µM (active)
EC50 [27]: 0.703 µM (active)
EC50 [28]: 26.1 µM (active)
EC50 [29]: 29.7 µM (active)
EC50 (Streptococcus): 0.934 µM (active)
IC50 [10]: 80 µM (inactive)
IC50 [11]: 6.57 µM (active)

COc1ccc(NC(=O)Nc2ccc3c(c2)CC(=O)N([C@@H](C)CO)C[C@@H](C)[C@H](CN(C)Cc2ccncc2)O3)cc1
AC50 [30]: > 52 µM (inactive)
AC50 [19]: > 52 µM (inactive)

CNc1nc(-c2c[nH]c3ccccc23)cs1
IC50 [11]: > 20 µM (inactive)

O=[N+]([O-])c1cc(CN2CCOCC2)c2cccnc2c1O
IC50 [31]: 2.93 µM (active)
IC50 [32]: 50 µM (inactive)
CC50 [25]: > 40 µM (active)

CN(Cc1cc2ccccc2nc1O)S(C)(=O)=O
EC50 [12]: > 20 µM (not active)
EC50 [14]: > 20 µM (not active)

C=CCNC1=C(NCCCN(CC)CC)C(=O)c2ccccc2C1=O
AC50 [33]: 25.3 µM (active)
AC50 [34]: 17.9 µM (active)

Oc1cc(CSc2ccccn2)nc(O)n1
AC50 [8]: 1.86 µM (active)

COc1ccccc1-c1noc(-c2cccs2)n1
EC50 [23]: > 67.5 µM (inactive)

O=C(NC1=C(c2ccc(OC(F)(F)F)cc2)C(=O)c2ccccc2C1=O)c1ccccc1
AC50 [33]: 28.5 µM (active)
AC50 [34]: 20.7 µM (active)

Source: ChEMBL document CHEMBL1201862, “PubChem BioAssay data set” (2004)
